We go through 4 molecules from patent publication US20060241297A1, “Pyridinylamino-pyrimidine derivatives as protein kinase inhibitors” (Cyclacel Limited, priority 2003, published 2006).

One data set deals with CDK7/cyclin H (Homo sapiens, UniProt P50613). The experiment in a line: Kinase assay, incorporation of radioactive phosphate from ATP. The note with it: 100 μM ATP, 30° C.; read-out: Kinase inhibition Ki CDK7/cyclin H. In kind it is biochemical. On the procedure: (§1) The compounds from the examples above were investigated for their ability to inhibit the enzymatic activity of various protein kinases. This was achieved by measurement of incorporation of radioactive phosphate from ATP into appropriate polypeptide substrates. Recombinant protein kinases and kinase complexes were produced or obtained commercially. Assays were performed using 96-well plates and appropriate assay buffers (typically 25 mM β-glycerophosphate, 20 mM MOPS, 5 mM EGTA, 1 mM DTT, 1 mM […], pH 7.4), into which were added 2-4 μg of active enzyme with appropriate substrates. The reactions were initiated by addition of Mg/ATP mix (15 mM MgCl2+100 μM ATP with 30-50 kBq per well of [γ-^32P]-ATP) and mixtures incubated as required at 30° C. Reactions were stopped on ice, followed by filtration through p81 filterplates or GF/C filterplates (Whatman Polyfiltronics, Kent, UK). After washing 3 times with 75 mM aq orthophosphoric acid, plates were dried, scintillant added and incorporated radioactivity measured in a scintillation counter (TopCount, Packard Instruments, Pangboume, Berks, UK). Compounds for kinase assay were made up as 10 mM stocks in DMSO and diluted into 10% DMSO in assay buffer. Data was analysed using curve-fitting software (GraphPad Prism version 3.00 for Windows, GraphPad Software, San Diego Calif. USA) to determine IC50 values (concentration of test compound which inhibits kinase activity by 50%.).

A further data set addresses CDK2/cyclin A (Homo sapiens, UniProt P24941). Described as above. Type of data set: biochemical. The following applies: 100 μM ATP, 30° C.; read-out: Kinase inhibition Ki CDK2/cyclin A. How it is done:
as §1

The target in another data set is CDK1/cyclin B (Homo sapiens, UniProt P06493). The description is as above. Type of data set: biochemical. The note with it: 100 μM ATP, 30° C.; read-out: Kinase inhibition Ki CDK1/cyclin B. How it is done:
as §1

The target of another data set is CDK9/cyclin T1 (Homo sapiens, UniProt P50750). The data set is described as above. The following applies: 100 μM ATP, 30° C.; read-out: Kinase inhibition Ki CDK9/cyclin T1. Type of data set: biochemical. How it is done: as §1
A further data set deals with T1, Aurora-A (Homo sapiens, UniProt O14965).
T1 sequence (O14965 1-403): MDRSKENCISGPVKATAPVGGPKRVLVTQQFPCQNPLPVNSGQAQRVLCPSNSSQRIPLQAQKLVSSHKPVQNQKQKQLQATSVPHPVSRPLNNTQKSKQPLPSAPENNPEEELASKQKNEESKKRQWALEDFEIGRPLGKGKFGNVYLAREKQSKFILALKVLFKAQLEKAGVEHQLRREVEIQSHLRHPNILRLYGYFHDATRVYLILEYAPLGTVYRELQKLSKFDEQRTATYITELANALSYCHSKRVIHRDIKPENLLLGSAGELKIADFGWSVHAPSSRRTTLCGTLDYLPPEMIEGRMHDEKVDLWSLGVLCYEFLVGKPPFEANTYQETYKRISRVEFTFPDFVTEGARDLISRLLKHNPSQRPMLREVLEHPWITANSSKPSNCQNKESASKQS
The data set is described as above. In kind it is biochemical. The following applies: 100 μM ATP, 30° C.; read-out: Kinase inhibition Ki Aurora-A. On the procedure: as §1

The next data set concerns the target CDK4/cyclin D1 (Homo sapiens, UniProt P11802). The description is as above. Type of data set: biochemical. The note with it: 100 μM ATP, 30° C.; read-out: Kinase inhibition Ki CDK4/cyclin D1. How it is done: as §1
A further data set concerns A549. Briefly: 72-h MTT cytotoxicity assay. In kind it is cell-based. The note with it: Homo sapiens. How it is done:
(§2) The compounds from the examples above were subjected to a standard cellular proliferation assay using human tumour cell lines obtained from the ATCC (American Type Culture Collection, 10801 University Boulevard, Manessas, Va. 20110-2209, USA). Standard 72-h MTT (thiazolyl blue; 3-[4,5-dimethylthiazol-2-yl]-2,5-diphenyltetrazolium bromide) assays were performed. In short: cells were seeded into 96-well plates according to doubling time and incubated overnight at 37° C. Test compounds were made up in DMSO and a 1/3 dilution series prepared in 100 μL cell media, added to cells (in triplicates) and incubated for 72 ho at 37° C. MTT was made up as a stock of 5 mg/mL in cell media and filter-sterilised. Media was removed from cells followed by a wash with 200 μL PBS. MTT solution was then added at 20 μL per well and incubated in the dark at 37° C. for 4 h. MTT solution was removed and cells again washed with 200 μL PBS. MTT dye was solubilised with 200 μL per well of DMSO with agitation. Absorbance was read at 540 nm and data analysed using curve-fitting software (GraphPad Prism version 3.00 for Windows, GraphPad Software, San Diego Calif. USA) to determine IC50 values (concentration of test compound which inhibits cell growth by 50%). Various modifications and variations of the described aspects of the invention will be apparent to those skilled in the art without departing from the scope and spirit of the invention. Although the invention has been described in connection with specific preferred embodiments, it should be understood that the invention as claimed should not be unduly limited to such specific embodiments. Indeed, various modifications of the described modes of carrying out the invention which are obvious to those skilled in the relevant fields are intended to be within the scope of the following claims.

Another data set relates to Saos-2. The experiment in a line: 72-h MTT cytotoxicity assay. The note with it: Homo sapiens. Type of data set: cell-based. On the procedure: as §2
The test system of data set [1] is transformed human cell lines (A549, HT29, Saos-2). Briefly: 72-h MTT cytotoxicity assay, average over cell lines. In kind it is cell-based. On the procedure:
as §2
(In general: Tetrazolium assays rely on reduction of a dye to a coloured formazan, in cell work by metabolically active cells.)

The target of a further data set is CDK2/cyclin E (Homo sapiens, UniProt P24941). Briefly: Kinase assay, incorporation of radioactive phosphate from ATP. Type of data set: biochemical. The following applies: 100 μM ATP, 30° C.; read-out: Kinase inhibition Ki CDK2/cyclin E. How it is done:
as §1

The next data set has as its system HT29. Briefly: 72-h MTT cytotoxicity assay. The note with it: Homo sapiens, HT-29. Type of data set: cell-based. How it is done: as §2
Another data set addresses GSK3β (Homo sapiens, UniProt P49841). Briefly: Kinase assay, incorporation of radioactive phosphate from ATP. Type of data set: biochemical. The following applies: 100 μM ATP, 30° C.; read-out: Kinase inhibition Ki GSK3β. On the procedure: as §1
Where [2] appears, read: average of A549, HT29, Saos-2, read-out: 72-h MTT IC50 Average.
The mark [3] stands for this setting: in vitro, read-out: IC50 value (average) against one or more transformed human cell lines, 72-h MTT cytotoxicity assay.

Molecules are shown by their SMILES. Like-named read-outs stand apart in the source and are kept apart here. Bounds are passed on as bounds.

Chain of CDK4/cyclin D1 (P11802 whole entry): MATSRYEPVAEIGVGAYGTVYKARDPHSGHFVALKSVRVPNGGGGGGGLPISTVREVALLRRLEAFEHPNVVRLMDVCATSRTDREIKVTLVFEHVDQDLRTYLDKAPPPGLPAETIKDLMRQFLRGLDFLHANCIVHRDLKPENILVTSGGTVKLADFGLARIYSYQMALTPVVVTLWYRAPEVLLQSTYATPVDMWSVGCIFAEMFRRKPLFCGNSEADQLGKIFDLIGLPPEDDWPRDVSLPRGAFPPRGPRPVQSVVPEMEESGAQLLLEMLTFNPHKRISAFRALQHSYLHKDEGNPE
Chain of CDK4/cyclin D1 (P24385 whole entry partner): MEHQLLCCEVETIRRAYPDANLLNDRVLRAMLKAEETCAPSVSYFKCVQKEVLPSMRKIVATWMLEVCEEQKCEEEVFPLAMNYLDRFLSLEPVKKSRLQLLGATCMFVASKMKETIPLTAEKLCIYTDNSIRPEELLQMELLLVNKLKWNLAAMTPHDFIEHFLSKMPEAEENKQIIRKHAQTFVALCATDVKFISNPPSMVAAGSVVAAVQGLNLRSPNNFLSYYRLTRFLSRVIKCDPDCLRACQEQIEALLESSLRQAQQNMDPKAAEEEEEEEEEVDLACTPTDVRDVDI
Chain of CDK9/cyclin T1 (P50750 whole entry): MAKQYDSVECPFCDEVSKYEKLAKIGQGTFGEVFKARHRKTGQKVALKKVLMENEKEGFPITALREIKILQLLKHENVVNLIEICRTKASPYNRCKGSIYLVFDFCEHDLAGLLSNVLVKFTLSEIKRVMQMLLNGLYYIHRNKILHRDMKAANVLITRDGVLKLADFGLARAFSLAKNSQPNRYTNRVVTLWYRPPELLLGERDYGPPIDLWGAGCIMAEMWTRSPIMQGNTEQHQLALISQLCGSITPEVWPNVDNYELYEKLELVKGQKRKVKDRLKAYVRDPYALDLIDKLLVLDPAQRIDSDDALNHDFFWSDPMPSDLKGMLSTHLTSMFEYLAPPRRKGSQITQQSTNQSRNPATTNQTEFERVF
Chain of CDK9/cyclin T1 (O60563 whole entry partner): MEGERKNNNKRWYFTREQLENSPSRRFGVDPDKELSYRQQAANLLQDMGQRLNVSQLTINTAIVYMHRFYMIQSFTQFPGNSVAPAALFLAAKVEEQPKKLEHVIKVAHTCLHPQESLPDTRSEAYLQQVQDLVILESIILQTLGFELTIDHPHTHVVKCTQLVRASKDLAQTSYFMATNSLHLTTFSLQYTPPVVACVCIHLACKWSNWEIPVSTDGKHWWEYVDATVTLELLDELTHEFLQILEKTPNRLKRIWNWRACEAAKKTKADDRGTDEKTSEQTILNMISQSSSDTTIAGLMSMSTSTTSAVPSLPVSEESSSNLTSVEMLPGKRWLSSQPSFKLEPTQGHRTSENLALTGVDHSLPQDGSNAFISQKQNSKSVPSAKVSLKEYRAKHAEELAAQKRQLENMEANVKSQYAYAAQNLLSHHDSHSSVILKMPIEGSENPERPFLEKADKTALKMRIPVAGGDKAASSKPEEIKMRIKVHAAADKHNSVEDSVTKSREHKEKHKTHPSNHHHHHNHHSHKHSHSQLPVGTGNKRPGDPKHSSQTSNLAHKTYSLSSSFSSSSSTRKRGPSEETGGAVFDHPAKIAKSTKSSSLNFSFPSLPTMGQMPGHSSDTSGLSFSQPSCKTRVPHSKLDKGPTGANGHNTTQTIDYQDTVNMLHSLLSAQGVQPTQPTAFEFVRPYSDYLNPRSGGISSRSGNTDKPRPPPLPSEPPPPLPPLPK
Chain of CDK7/cyclin H (P50613 whole entry): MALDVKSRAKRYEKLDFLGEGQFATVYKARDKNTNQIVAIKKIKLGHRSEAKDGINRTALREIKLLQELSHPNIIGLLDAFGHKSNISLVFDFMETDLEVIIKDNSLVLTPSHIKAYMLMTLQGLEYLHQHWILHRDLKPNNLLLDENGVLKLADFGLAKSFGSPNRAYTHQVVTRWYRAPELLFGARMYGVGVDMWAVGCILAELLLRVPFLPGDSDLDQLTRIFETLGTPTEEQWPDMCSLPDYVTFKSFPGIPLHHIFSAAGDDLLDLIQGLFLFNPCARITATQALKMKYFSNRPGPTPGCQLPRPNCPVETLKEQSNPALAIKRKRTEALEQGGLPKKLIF
Chain of CDK7/cyclin H (P51946 whole entry partner): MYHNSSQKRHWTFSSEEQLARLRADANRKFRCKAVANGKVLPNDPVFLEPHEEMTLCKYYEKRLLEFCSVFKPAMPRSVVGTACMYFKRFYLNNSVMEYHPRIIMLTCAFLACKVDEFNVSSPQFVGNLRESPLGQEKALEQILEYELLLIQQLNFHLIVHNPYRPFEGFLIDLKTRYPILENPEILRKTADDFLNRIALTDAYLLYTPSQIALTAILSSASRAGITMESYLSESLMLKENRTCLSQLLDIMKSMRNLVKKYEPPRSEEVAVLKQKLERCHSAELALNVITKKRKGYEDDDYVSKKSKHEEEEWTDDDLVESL
Chain of CDK1/cyclin B (P06493 whole entry): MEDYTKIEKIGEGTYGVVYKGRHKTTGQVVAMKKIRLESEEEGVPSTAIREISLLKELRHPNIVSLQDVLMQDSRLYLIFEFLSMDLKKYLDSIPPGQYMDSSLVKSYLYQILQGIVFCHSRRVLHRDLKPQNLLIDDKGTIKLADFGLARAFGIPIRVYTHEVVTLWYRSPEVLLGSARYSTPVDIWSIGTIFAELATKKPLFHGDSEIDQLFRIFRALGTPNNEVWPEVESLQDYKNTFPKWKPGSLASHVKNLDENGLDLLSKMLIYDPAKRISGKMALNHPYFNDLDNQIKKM
Chain of CDK1/cyclin B (P14635 whole entry partner): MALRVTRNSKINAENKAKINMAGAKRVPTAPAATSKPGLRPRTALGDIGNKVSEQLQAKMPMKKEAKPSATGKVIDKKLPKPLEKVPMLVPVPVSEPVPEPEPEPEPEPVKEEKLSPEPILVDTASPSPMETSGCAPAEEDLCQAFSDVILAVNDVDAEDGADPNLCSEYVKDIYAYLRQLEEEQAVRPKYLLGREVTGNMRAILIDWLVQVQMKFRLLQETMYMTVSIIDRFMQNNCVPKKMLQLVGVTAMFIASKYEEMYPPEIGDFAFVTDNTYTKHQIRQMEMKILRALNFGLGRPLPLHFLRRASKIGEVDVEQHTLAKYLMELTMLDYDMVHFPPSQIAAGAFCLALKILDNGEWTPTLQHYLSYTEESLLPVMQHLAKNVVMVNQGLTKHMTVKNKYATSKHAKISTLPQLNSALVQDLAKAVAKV
Chain of GSK3β (P49841 whole entry): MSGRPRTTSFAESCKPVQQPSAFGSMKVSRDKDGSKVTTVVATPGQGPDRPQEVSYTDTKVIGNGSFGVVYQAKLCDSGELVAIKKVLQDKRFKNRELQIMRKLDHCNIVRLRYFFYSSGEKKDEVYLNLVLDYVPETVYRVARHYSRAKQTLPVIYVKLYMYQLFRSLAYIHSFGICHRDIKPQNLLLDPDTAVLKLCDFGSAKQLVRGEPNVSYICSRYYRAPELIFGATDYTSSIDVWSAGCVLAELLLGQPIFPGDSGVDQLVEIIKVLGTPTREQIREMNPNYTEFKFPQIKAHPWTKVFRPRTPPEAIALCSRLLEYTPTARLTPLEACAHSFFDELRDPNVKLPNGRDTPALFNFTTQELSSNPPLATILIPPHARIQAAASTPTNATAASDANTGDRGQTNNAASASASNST

With `Cc1nc(C)c(-c2ccnc(Nc3ccc(N4CCCC4)nc3)n2)s1` [Compound 14, [4-(2,4-Dimethyl-thiazol-5-yl)-pyrimidin-2-yl]-(6-pyrrolidin-1-yl-pyridin-3-yl)-amine], the Ki at CDK7/cyclin H is 730 nM; on CDK2/cyclin A it was 1400 nM; on CDK1/cyclin B, 2100 nM; at CDK9/cyclin T1, 100 nM; at Aurora-A, 120 nM; at CDK4/cyclin D1 it was 2600 nM. In addition, the IC50 in the data set with A549 was determined as 300 nM; in the data set with Saos-2, 320 nM; in [1] (setting [2]) it was 300 nM.
With `Cc1nc(C)c(-c2ccnc(Nc3ccc[n+](C)c3)n2)s1` [Compound 2, 3-[4-(2,4-Dimethyl-thiazol-5-yl)-pyrimidin-2-ylamino]-1-methyl-pyridinium], the melting point fell in the range of 297 to 300 °C. Moreover, the Ki on CDK2/cyclin E worked out at 1500 nM. Further, on CDK4/cyclin D1, the Ki worked out at 4100 nM. This molecule gave an IC50 in the data set on HT29 of 86000 nM. Further, in the data set on A549, 11600 nM corresponded to half-maximal inhibition (IC50). Besides, in the data set with Saos-2, the concentration for half-maximal inhibition (IC50) is 48500 nM. The IC50 in data set [1] (setting [2]) came to 48700 ± 37200 nM.
Take `CNc1nc(C)c(-c2ccnc(Nc3ccc(Cl)nc3)n2)s1` [Compound 9, (6-Chloro-pyridin-3-yl)-[4-(4-methyl-2-methylamino-thiazol-5-yl)-pyrimidin-2-yl]-amine]: the Ki on CDK2/cyclin A was 480 nM; on CDK2/cyclin E, 80 nM; on CDK9/cyclin T1, 110 nM; at Aurora-A it was 1000 nM; at CDK4/cyclin D1 it was 980 nM. For the same molecule, the IC50 in the data set with HT29 was 4700 nM; in the data set on A549 it was 3700 nM; in the data set on Saos-2, 5200 nM; in [1] (setting [2]), 4600 ± 800 nM; in data set [1] (setting [3]), below 10000 nM.
With `Cc1nc(C)c(-c2ccnc(Nc3ccc(Cl)nc3)n2)s1` [Compound 3, (6-Chloro-pyridin-3-yl)-[4-(2,4-dimethyl-thiazol-5-yl)-pyrimidin-2-yl]-amine], the Ki at CDK7/cyclin H is 7200 nM; on CDK2/cyclin A, 1700 nM; on CDK1/cyclin B, 4200 nM; on CDK2/cyclin E it was 350 nM; at GSK3β it was 110 nM; on CDK9/cyclin T1 it was 970 nM. Also, the Ki on Aurora-A came out at 860 nM; on CDK4/cyclin D1 it was 660 nM. The 50% inhibitory concentration (IC50) in the data set with HT29 is 2800 nM; with A549, 9800 nM; in the data set with Saos-2, 4400 nM; in data set [1] (setting [2]), 5700 ± 3700 nM; in data set [1] (setting [3]), below 10000 nM.

For orientation: IC50 means the concentration that gives 50% inhibition. The melting point is the temperature of the solid-liquid transition.
